# Measurements as given in publication PMC3445516 (PLoS ONE, 2012).
# Tests used:
# Assay in all cases: Ambit kinase profiling, competition binding
# DRAK2 = target: T1, DRAK2 (Homo sapiens, UniProt O94768); settings: compound concentration 10 uM, read-out: Percent Competition
# T1 construct: purchased Ambit Biosciences (KINOMEscan)
# Source text: (§1) Supplement pone.0044653.s004.xls, sheet "Compound 122" | column: Percent Competition
# RET(V804M) = target: T2, RET(V804M) (Homo sapiens, UniProt P07949, V804M); settings: compound concentration 10 uM, read-out: Percent Competition
# T2 construct: purchased Ambit Biosciences (KINOMEscan)
# Source text: as §1
# ABL1(H396P) = target: T3, ABL1(H396P) (Homo sapiens, UniProt P00519, H396P); settings: compound concentration 10 uM, read-out: Percent Competition
# T3 construct: purchased Ambit Biosciences (KINOMEscan)
# Source text: as §1
# FER = target: T4, FER (Homo sapiens, UniProt P16591); settings: compound concentration 10 uM, read-out: Percent Competition
# T4 construct: purchased Ambit Biosciences (KINOMEscan)
# Source text: as §1
# MLCK = target: T5, MLCK (Homo sapiens, UniProt Q32MK0); settings: compound concentration 10 uM, read-out: Percent Competition
# T5 construct: purchased Ambit Biosciences (KINOMEscan)
# Source text: as §1
# CDKL2 = target: T6, CDKL2 (Homo sapiens, UniProt Q92772); settings: compound concentration 10 uM, read-out: Percent Competition
# T6 construct: purchased Ambit Biosciences (KINOMEscan)
# Source text: as §1
# MST1 = target: T7, MST1 (Homo sapiens, UniProt Q13043); settings: compound concentration 10 uM
# T7 construct: purchased Ambit Biosciences (KINOMEscan)
# Source text: as §1
# INSRR = target: T8, INSRR (Homo sapiens, UniProt P14616); settings: compound concentration 10 uM, read-out: Percent Competition
# T8 construct: purchased Ambit Biosciences (KINOMEscan)
# Source text: as §1
# VEGFR2 = target: T9, VEGFR2 (Homo sapiens, UniProt P35968); settings: compound concentration 10 uM, read-out: Percent Competition
# T9 construct: purchased Ambit Biosciences (KINOMEscan)
# Source text: as §1
# MARK3 = target: T10, MARK3 (Homo sapiens, UniProt P27448); settings: compound concentration 10 uM, read-out: Percent Competition
# T10 construct: purchased Ambit Biosciences (KINOMEscan)
# Source text: as §1
# MERTK = target: T11, MERTK (Homo sapiens, UniProt Q12866); settings: compound concentration 10 uM, read-out: Percent Competition
# T11 construct: purchased Ambit Biosciences (KINOMEscan)
# Source text: as §1
# TIE1 = target: T12, TIE1 (Homo sapiens, UniProt P35590); settings: compound concentration 10 uM, read-out: Percent Competition
# T12 construct: purchased Ambit Biosciences (KINOMEscan)
# Source text: as §1
# MARK4 = target: T13, MARK4 (Homo sapiens, UniProt Q96L34); settings: compound concentration 10 uM
# T13 construct: purchased Ambit Biosciences (KINOMEscan)
# Source text: as §1
# KIT(D816V) = target: T14, KIT(D816V) (Homo sapiens, UniProt P10721, D816V); settings: compound concentration 10 uM, read-out: Percent Competition
# T14 construct: purchased Ambit Biosciences (KINOMEscan)
# Source text: as §1
# PIK3CD = target: T15, PIK3CD (Homo sapiens, UniProt O00329); settings: compound concentration 10 uM, read-out: Percent Competition
# T15 construct: purchased Ambit Biosciences (KINOMEscan)
# Source text: as §1
# KIT = target: T16, KIT (Homo sapiens, UniProt P10721); settings: compound concentration 10 uM, read-out: Percent Competition
# T16 construct: purchased Ambit Biosciences (KINOMEscan)
# Source text: as §1
# DRAK1 = target: T17, DRAK1 (Homo sapiens, UniProt Q9UEE5); settings: compound concentration 10 uM, read-out: Percent Competition
# T17 construct: purchased Ambit Biosciences (KINOMEscan)
# Source text: as §1
# MAPKAPK5 = target: T18, MAPKAPK5 (Homo sapiens, UniProt Q8IW41); settings: compound concentration 10 uM, read-out: Percent Competition
# T18 construct: purchased Ambit Biosciences (KINOMEscan)
# Source text: as §1
# TLK2 = target: T19, TLK2 (Homo sapiens, UniProt Q86UE8); settings: compound concentration 10 uM, read-out: Percent Competition
# T19 construct: purchased Ambit Biosciences (KINOMEscan)
# Source text: as §1
# SRPK1 = target: T20, SRPK1 (Homo sapiens, UniProt Q96SB4); settings: compound concentration 10 uM, read-out: Percent Competition
# T20 construct: purchased Ambit Biosciences (KINOMEscan)
# Source text: as §1
# TSSK1B = target: T21, TSSK1B (Homo sapiens, UniProt Q9BXA7); settings: compound concentration 10 uM, read-out: Percent Competition
# T21 construct: purchased Ambit Biosciences (KINOMEscan)
# Source text: as §1
# IKK-beta = target: T22, IKK-beta (Homo sapiens, UniProt O14920); settings: compound concentration 10 uM, read-out: Percent Competition
# T22 construct: purchased Ambit Biosciences (KINOMEscan)
# Source text: as §1
# AXL = target: T23, AXL (Homo sapiens, UniProt P30530); settings: compound concentration 10 uM, read-out: Percent Competition
# T23 construct: purchased Ambit Biosciences (KINOMEscan)
# Source text: as §1
# TYRO3 = target: T24, TYRO3 (Homo sapiens, UniProt Q06418); settings: compound concentration 10 uM, read-out: Percent Competition
# T24 construct: purchased Ambit Biosciences (KINOMEscan)
# Source text: as §1
# PIK3CA(E545K) = target: T25, PIK3CA(E545K) (Homo sapiens, UniProt P42336, E545K); settings: compound concentration 10 uM, read-out: Percent Competition
# T25 construct: purchased Ambit Biosciences (KINOMEscan)
# Source text: as §1
# AMPK-alpha1 = target: T26, AMPK-alpha1 (Homo sapiens, UniProt Q13131); settings: compound concentration 10 uM, read-out: Percent Competition
# T26 construct: purchased Ambit Biosciences (KINOMEscan)
# Source text: as §1
# WEE1 = target: T27, WEE1 (Homo sapiens, UniProt P30291); settings: compound concentration 10 uM, read-out: Percent Competition
# T27 construct: purchased Ambit Biosciences (KINOMEscan)
# Source text: as §1
# CSNK2A2 = target: T28, CSNK2A2 (Homo sapiens, UniProt P19784); settings: compound concentration 10 uM, read-out: Percent Competition
# T28 construct: purchased Ambit Biosciences (KINOMEscan)
# Source text: as §1
# TEC = target: T29, TEC (Homo sapiens, UniProt P42680); settings: compound concentration 10 uM, read-out: Percent Competition
# T29 construct: purchased Ambit Biosciences (KINOMEscan)
# Source text: as §1
# RIPK1 = target: T30, RIPK1 (Homo sapiens, UniProt Q13546); settings: compound concentration 10 uM, read-out: Percent Competition
# T30 construct: purchased Ambit Biosciences (KINOMEscan)
# Source text: as §1
# MELK = target: T31, MELK (Homo sapiens, UniProt Q14680); settings: compound concentration 10 uM, read-out: Percent Competition
# T31 construct: purchased Ambit Biosciences (KINOMEscan)
# Source text: as §1
# PRKX = target: T32, PRKX (Homo sapiens, UniProt P51817); settings: compound concentration 10 uM, read-out: Percent Competition
# T32 construct: purchased Ambit Biosciences (KINOMEscan)
# Source text: as §1
# PYK2 = target: T33, PYK2 (Homo sapiens, UniProt Q14289); settings: compound concentration 10 uM, read-out: Percent Competition
# T33 construct: purchased Ambit Biosciences (KINOMEscan)
# Source text: as §1
# TRKA = target: T34, TRKA (Homo sapiens, UniProt P04629); settings: compound concentration 10 uM, read-out: Percent Competition
# T34 construct: purchased Ambit Biosciences (KINOMEscan)
# Source text: as §1
# MAP4K2 = target: T35, MAP4K2 (Homo sapiens, UniProt Q12851); settings: compound concentration 10 uM, read-out: Percent Competition
# T35 construct: purchased Ambit Biosciences (KINOMEscan)
# Source text: as §1
# SIK = target: T36, SIK (Homo sapiens, UniProt P57059); settings: compound concentration 10 uM
# T36 construct: purchased Ambit Biosciences (KINOMEscan)
# Source text: as §1
# GCN2(Kin.Dom.2,S808G) = target: T37, GCN2(Kin.Dom.2,S808G) (Homo sapiens, UniProt Q9P2K8, S808G); settings: compound concentration 10 uM, read-out: Percent Competition
# T37 construct: GCN2(Kin.Dom.2,S808G); purchased Ambit Biosciences (KINOMEscan)
# Source text: as §1
# FLT3 = target: T38, FLT3 (Homo sapiens, UniProt P36888); settings: compound concentration 10 uM, read-out: Percent Competition
# T38 construct: purchased Ambit Biosciences (KINOMEscan)
# Source text: as §1
# PFTAIRE2 = target: T39, PFTAIRE2 (Homo sapiens, UniProt Q96Q40); settings: compound concentration 10 uM, read-out: Percent Competition
# T39 construct: purchased Ambit Biosciences (KINOMEscan)
# Source text: as §1
# FGFR1 = target: T40, FGFR1 (Homo sapiens, UniProt P11362); settings: compound concentration 10 uM, read-out: Percent Competition
# T40 construct: purchased Ambit Biosciences (KINOMEscan)
# Source text: as §1
smiles,measurement,setting,value
Fc1ccc(-c2c(-c3ccncc3)[nH]c3nccnc23)cc1 [RO1155697-000-005],inhibition at 10 µM,DRAK2,< 50%
same,inhibition at 10 µM,RET(V804M),< 50%
same,inhibition at 10 µM,ABL1(H396P),< 50%
same,inhibition at 10 µM,FER,< 50%
same,inhibition at 10 µM,MLCK,< 50%
same,inhibition at 10 µM,CDKL2,< 50%
same,Percent Competition,MST1,<50%
same,inhibition at 10 µM,INSRR,< 50%
same,inhibition at 10 µM,VEGFR2,< 50%
same,inhibition at 10 µM,MARK3,< 50%
same,inhibition at 10 µM,MERTK,< 50%
same,inhibition at 10 µM,TIE1,< 50%
same,Percent Competition,MARK4,<50%
same,inhibition at 10 µM,KIT(D816V),< 50%
same,inhibition at 10 µM,PIK3CD,< 50%
same,inhibition at 10 µM,KIT,< 50%
same,inhibition at 10 µM,DRAK1,< 50%
same,inhibition at 10 µM,MAPKAPK5,< 50%
same,inhibition at 10 µM,TLK2,< 50%
same,inhibition at 10 µM,SRPK1,< 50%
same,inhibition at 10 µM,TSSK1B,< 50%
same,inhibition at 10 µM,IKK-beta,< 50%
same,inhibition at 10 µM,AXL,< 50%
same,inhibition at 10 µM,TYRO3,< 50%
same,inhibition at 10 µM,PIK3CA(E545K),< 50%
same,inhibition at 10 µM,AMPK-alpha1,< 50%
same,inhibition at 10 µM,WEE1,< 50%
same,inhibition at 10 µM,CSNK2A2,< 50%
same,inhibition at 10 µM,TEC,< 50%
same,inhibition at 10 µM,RIPK1,< 50%
same,inhibition at 10 µM,MELK,< 50%
same,inhibition at 10 µM,PRKX,< 50%
same,inhibition at 10 µM,PYK2,< 50%
same,inhibition at 10 µM,TRKA,< 50%
same,inhibition at 10 µM,MAP4K2,< 50%
same,Percent Competition,SIK,<50%
same,inhibition at 10 µM,"GCN2(Kin.Dom.2,S808G)",< 50%
same,inhibition at 10 µM,FLT3,< 50%
same,inhibition at 10 µM,PFTAIRE2,< 50%
same,inhibition at 10 µM,FGFR1,< 50%
